In paper PMC12396409, “Screening and hit evaluation of a microbial metabolite library against the pathogenic Plasmodium falciparum and Toxoplasma gondii parasites” (International Journal for Parasitology: Drugs and Drug …, 2025):
Where two headings read alike, the source gives them in different places.

Legend:
[1] = test system: T. gondii RH strain (RH-Tub-eYFP) tachyzoites; test: microbe, parasite or virus in culture; format: cell-based, Toxoplasma gondii; conditions: 72 h, 72 h
[2] = test system: P. falciparum 3D7 parasites; test: P. falciparum growth inhibition assay, 2-cycle (120 h treatment), delayed-death screen and dose-response; format: cell-based, Plasmodium falciparum; conditions: for 3) Fold change (72 h/120 h): growth at 72 h / growth at 120 h
[3] = test system: P. falciparum 3D7 parasites; test: P. falciparum growth inhibition assay, 1-cycle (72 h treatment), SYBR DNA staining (library screen at 2 μg/mL and dose-response); format: cell-based, Plasmodium falciparum
[4] = Toxoplasma gondii, T. gondii, screen at 2 μg/mL, replicate 1, read-out: Tg_72h_%Growth_Rep1
[5] = Toxoplasma gondii, T. gondii, screen at 2 μg/mL, replicate 2, read-out: Tg_72h_%Growth_Rep2
[6] = Plasmodium falciparum, 3D7; P. falciparum, 2 μg/mL, 120 h; read-out: 2) Growth (%) at 120 h
[7] = Plasmodium falciparum, 3D7, P. falciparum, 120 h, screen at 2 μg/mL, replicate 1, read-out: Pf_120h_%Growth_Rep1
[8] = Plasmodium falciparum, 3D7, P. falciparum, 120 h, screen at 2 μg/mL, replicate 2, read-out: Pf_120h_%Growth_Rep2
[9] = Plasmodium falciparum, 3D7; P. falciparum, 2 μg/mL, 72 h; read-out: 1) Growth (%) at 72 h
[10] = Plasmodium falciparum, 3D7, P. falciparum, 72 h, screen at 2 μg/mL, replicate 1, read-out: Pf_72h_%Growth_Rep1
[11] = Plasmodium falciparum, 3D7, P. falciparum, 72 h, screen at 2 μg/mL, replicate 2, read-out: Pf_72h_%Growth_Rep2
[12] = T. gondii, screen at 2 μg/mL, replicate 1
[13] = T. gondii, screen at 2 μg/mL, replicate 2
[14] = P. falciparum, 120 h, screen at 2 μg/mL, replicate 1
[15] = P. falciparum, 120 h, screen at 2 μg/mL, replicate 2
[16] = P. falciparum, 72 h, screen at 2 μg/mL, replicate 1
[17] = P. falciparum, 72 h, screen at 2 μg/mL, replicate 2
[18] = Plasmodium falciparum, 3D7, 120 h, P. falciparum, 120 h, screen at 2 μg/mL, replicate 1, read-out: Pf_120h_%Growth_Rep1
[19] = Plasmodium falciparum, 3D7, 120 h, P. falciparum, 120 h, screen at 2 μg/mL, replicate 2, read-out: Pf_120h_%Growth_Rep2
[20] = Plasmodium falciparum, 3D7, 72 h, P. falciparum, 72 h, screen at 2 μg/mL, replicate 1, read-out: Pf_72h_%Growth_Rep1
[21] = Plasmodium falciparum, 3D7, 72 h, P. falciparum, 72 h, screen at 2 μg/mL, replicate 2, read-out: Pf_72h_%Growth_Rep2

Compound | percent parasite growth at 2 µg/mL [1, 4] [%] | percent parasite growth at 2 µg/mL [1, 5] [%] | Tg_72h_%Growth_Rep1 [1, 12] [%] | Tg_72h_%Growth_Rep2 [1, 13] [%] | Pf_120h_%Growth_Rep1 [2, 14] [%] | Pf_120h_%Growth_Rep2 [2, 15] [%] | Pf_72h_%Growth_Rep1 [3, 16] [%] | Pf_72h_%Growth_Rep2 [3, 17] [%] | further results
C=C[C@]1(C)C[C@@H](OC(=O)CSCCN(CC)CC)[C@]2(C)[C@H](C)CC[C@]3(CCC(=O)[C@H]32)[C@@H](C)[C@@H]1O [Tiamulin, reference compound] | 55.8 | 29.4 | – | – | – | – | – | – | IC50 ([1]; Toxoplasma gondii, RH strain, mean ± S.D., n ≥ 3, read-out: IC50 (μM), T. gondii (converted)): > 1 µM; Screen (T. gondii) ([1]; library screen at 2 μg/mL, RH strain): I; delayed-death activity in the 120 h screen against P. falciparum ([2]; 2 μg/mL, criteria: ≥40 % growth at 72 h, ≤20 % growth at 120 h, at least 5-fold): delayed-death activity; 3) Fold change (72 h/120 h) ([2]; P. falciparum, 2 μg/mL): 7.0; IC50 ([2]; Plasmodium falciparum, 3D7, read-out: IC50, P. falciparum, 120 h dose-response (delayed-death)): ~1000 nM; activity at 2 µg/mL [2, 6]: 7.81%; activity at 2 µg/mL [2, 7]: 6.75%; activity at 2 µg/mL [2, 8]: 8.86%; activity at 2 µg/mL [3, 9]: 55%; activity at 2 µg/mL [3, 10]: 61.3%; activity at 2 µg/mL [3, 11]: 48.7%; IC50 ([3]; Plasmodium falciparum, 3D7, 72 h treatment, mean ± S.D., n ≥ 3, read-out: IC50 (μM), P. falciparum): > 1 µM
CN(C)c1cc(NC(=O)CNC(C)(C)C)c(O)c2c1C[C@H]1C[C@H]3[C@H](N(C)C)C(O)=C(C(N)=O)C(=O)[C@@]3(O)C(O)=C1C2=O [Tigecycline] | 144 | 97 | – | – | – | – | – | – | activity at 2 µg/mL [2, 7]: 106%; activity at 2 µg/mL [2, 8]: 93.4%; activity at 2 µg/mL [3, 10]: 88.2%; activity at 2 µg/mL [3, 11]: 87.6%
CC[C@H]1OC(=O)C[C@@H](O)[C@H](C)[C@@H](O[C@@H]2O[C@H](C)[C@@H](O)[C@H](N(C)C)[C@H]2O)[C@@H](CCN2CCCCC2)C[C@@H](C)C(=O)/C=C/C(C)=C/[C@@H]1CN1CCCCC1 [Tildipirosin] | – | – | – | – | – | – | – | – | percent parasite growth at 2 µg/mL ([1]; Toxoplasma gondii, read-out: Tg_72h_%Growth_Rep1): 87.8%; percent parasite growth at 2 µg/mL ([1]; Toxoplasma gondii, read-out: Tg_72h_%Growth_Rep2): 85.6%; activity at 2 µg/mL [2, 7]: 9.99%; activity at 2 µg/mL [2, 8]: 11.7%; activity at 2 µg/mL [3, 10]: 10.8%; activity at 2 µg/mL [3, 11]: 5.94%
CC[C@H]1OC(=O)C[C@@H](O)[C@H](C)[C@@H](O[C@@H]2O[C@H](C)[C@@H](O)[C@H](N(C)C)[C@H]2O)[C@@H](CCN2C[C@H](C)C[C@H](C)C2)C[C@@H](C)C(=O)/C=C/C(C)=C/[C@@H]1CO[C@@H]1O[C@H](C)[C@@H](O)[C@@H](OC)[C@H]1OC.O=P(O)(O)O [Tilmicosin phosphate, reference compound] | – | – | 41.21 | 38.33 | 10.28 | 5.38 | 4.49 | 39.64 | 2) Growth (%) at 120 h ([2]; P. falciparum, 2 μg/mL, 120 h): 7.83%; 3) Fold change (72 h/120 h) ([2]; P. falciparum, 2 μg/mL): 2.8; 1) Growth (%) at 72 h ([3]; P. falciparum, 2 μg/mL, 72 h): 22.07%; Mean ([3]; P. falciparum, 72 h, 2 μg/mL, mean of both replicates, growth (% of control)): 22.07
CC[C@H]1OC(=O)C[C@@H](O)[C@H](C)[C@@H](O[C@@H]2O[C@H](C)[C@@H](O)[C@H](N(C)C)[C@H]2O)[C@@H](CCN2C[C@H](C)C[C@H](C)C2)C[C@@H](C)C(=O)/C=C/C(C)=C/[C@@H]1CO[C@@H]1O[C@H](C)[C@@H](O)[C@@H](OC)[C@H]1OC [Tilmicosin, reference compound] | 48.2 | 37.2 | – | – | – | – | – | – | 3) Fold change (72 h/120 h) ([2]; P. falciparum, 2 μg/mL): 3.0; activity at 2 µg/mL [2, 6]: 14.5%; activity at 2 µg/mL [2, 7]: 22.4%; activity at 2 µg/mL [2, 8]: 6.63%; activity at 2 µg/mL [3, 9]: 43.1%; activity at 2 µg/mL [3, 10]: 45%; activity at 2 µg/mL [3, 11]: 41.2%
Cn1ncnc2c(=O)n(C)c(=O)nc1-2 [Toxoflavin] | – | – | 3.96 | 6.88 | 16.11 | 20.32 | 6.97 | -1.92 | –
N#Cc1cn([C@@H]2O[C@H](CO)[C@@H](O)[C@H]2O)c2ncnc(N)c12 [Toyocamycin] | 0.78 | 1.19 | – | – | – | – | – | – | activity at 2 µg/mL [2, 18]: 25.6%; activity at 2 µg/mL [2, 19]: 6.44%; activity at 2 µg/mL [3, 20]: 2.78%; activity at 2 µg/mL [3, 21]: 4.02%
CC(=O)c1c(O)c(C(C)=O)c(O)c(C(C)=O)c1O [Triacetylphloroglucinol] | – | – | 132.07 | 93.42 | 80.17 | 112.26 | 83.84 | 50.48 | –
CC(/C=C/C(=O)NO[C@@H]1O[C@H](CO)[C@@H](O)[C@H](O)[C@H]1O)=C\[C@@H](C)C(=O)c1ccc(N(C)C)cc1 [Trichostatin C] | – | – | 87.04 | 108.99 | 157.32 | 88.61 | 75.18 | 84.35 | –
COc1cc(OC)c2c(OC)c3ccoc3nc2c1OC [Trimethoxydictamnine, 5,7,8-] | – | – | 134.56 | 84.32 | 91.88 | 81.51 | 85.08 | 101.79 | –
CC[C@H]1C[C@@H]2CC[C@@H](O2)[C@@H](C)C(=O)O[C@H](CC)C[C@H]2CC[C@H](O2)[C@H](C)C(=O)O[C@@H](C)C[C@@H]2CC[C@@H](O2)[C@@H](C)C(=O)O[C@H](CC)C[C@H]2CC[C@H](O2)[C@H](C)C(=O)O1 [Trinactin] | – | – | 2.98 | 5.01 | 16.44 | 5.60 | 3.59 | -0.10 | –
O=C(O)c1c(=O)cccc2ssc12 [Tropodithietic acid] | – | – | 1.16 | 1.78 | 21.29 | 16.13 | 3.58 | -3.15 | –
Nc1ncnc2c1ccn2[C@@H]1O[C@H](CO)[C@@H](O)[C@H]1O [Tubercidin] | 3.92 | 3.05 | – | – | – | – | – | – | activity at 2 µg/mL [2, 18]: 40.9%; activity at 2 µg/mL [2, 19]: 12.8%; activity at 2 µg/mL [3, 20]: 7.17%; activity at 2 µg/mL [3, 21]: 7.42%
O=C(O)c1cccc2nc3ccccc3nc12 [Tubermycin B] | – | – | 87.24 | 96.39 | 88.83 | 26.83 | 44.49 | 34.95 | –
CCCNC[C@]1(O)[C@H](C)O[C@@H](O[C@H]2[C@H](C)[C@@H](O[C@@H]3O[C@H](C)C[C@H](N(C)C)[C@H]3O)[C@](C)(O)C[C@@H](C)CN[C@H](C)[C@@H](O)[C@](C)(O)[C@@H](CC)OC(=O)[C@@H]2C)C[C@@]1(C)OC [Tulathromycin, reference compound] | – | – | 76.92 | 80.94 | 21.75 | 11.74 | 33.36 | 33.69 | 2) Growth (%) at 120 h ([2]; P. falciparum, 2 μg/mL, 120 h): 16.75%; 3) Fold change (72 h/120 h) ([2]; P. falciparum, 2 μg/mL): 2.0; 1) Growth (%) at 72 h ([3]; P. falciparum, 2 μg/mL, 72 h): 33.53%
